Test results as given in ChEMBL document CHEMBL1201862, “PubChem BioAssay data set” (2004).
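Results reflect a 48-hour exposure of cells in 96-well plates to compound at five concentrations. GI50 marks 50% less growth.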 Active and inactive are the calls of the source. Cut-off read from the data, not from the text of the source: active = GI50 up to about 1.1 µM and inactive = higher.

Experiments:
Test in all cases: inhibition of tumour cell growth, NCI panel, 48 h
[1] = tested on: HCT-15
[2] = tested on: CCRF-CEM
[3] = tested on: OVCAR-3
[4] = tested on: RXF 393
[5] = tested on: SF-539
[6] = tested on: OVCAR-8
[7] = tested on: SW-620
[8] = tested on: CAKI-1
[9] = tested on: HT-29
[10] = tested on: UACC-257
[11] = tested on: SF-295
[12] = tested on: NCI-H522
[13] = tested on: SK-OV-3
[14] = tested on: COLO 205
[15] = tested on: UACC-62
[16] = tested on: DLD-1
[17] = tested on: RPMI-8226
[18] = tested on: U-251
[19] = tested on: SNB-19
[20] = tested on: K562
[21] = tested on: KM-20L2
[22] = tested on: SK-MEL-5
[23] = tested on: HCT-116
[24] = tested on: NCI-H460
[25] = tested on: SK-MEL-28
[26] = tested on: A549
[27] = tested on: MOLT-4
[28] = tested on: TK-10
[29] = tested on: SR
[30] = tested on: SNB-78
[31] = tested on: DMS-114
[32] = tested on: NCI-H23
[33] = tested on: SNB-75
[34] = tested on: HOP-92
[35] = tested on: ACHN
[36] = tested on: UO-31
[37] = tested on: DMS-273
[38] = tested on: HCC 2998
[39] = tested on: M14
[40] = tested on: LOX IMVI
[41] = tested on: OVCAR-4
[42] = tested on: SF-268
[43] = tested on: IGROV-1
[44] = tested on: HOP-62
[45] = tested on: HOP-18
[46] = tested on: EKVX
[47] = tested on: LXFL 529
[48] = tested on: OVCAR-5
[49] = tested on: KM12
[50] = tested on: NCI-H226
[51] = tested on: M19-MEL
[52] = tested on: SN12C
[53] = tested on: Malme-3M
[54] = tested on: A498
[55] = tested on: SK-MEL-2
[56] = tested on: HL-60
[57] = tested on: 786-0
[58] = tested on: RXF 631

Cc1ccc(C)c(NC(=O)C(=O)CC(=O)c2cccc3ccccc23)c1
GI50 [1]: > 100 µM | GI50 [2]: > 100 µM (inactive) | GI50 [3]: > 100 µM (inactive) | GI50 [4]: > 100 µM (inactive) | GI50 [5]: > 100 µM (inactive) | GI50 [6]: > 100 µM (inactive) | GI50 [7]: > 100 µM (inactive) | GI50 [8]: > 100 µM (inactive) | GI50 [9]: > 100 µM (inactive) | GI50 [10]: > 100 µM (inactive) | GI50 [11]: > 100 µM (inactive) | GI50 [12]: > 100 µM (inactive) | GI50 [13]: > 100 µM (inactive) | GI50 [14]: > 100 µM (inactive) | GI50 [15]: > 100 µM (inactive) | GI50 [16]: > 100 µM (inactive) | GI50 [17]: > 100 µM (inactive) | GI50 [18]: > 100 µM (inactive) | GI50 [19]: > 100 µM (inactive) | GI50 [20]: > 100 µM (inactive) | GI50 [21]: > 100 µM (inactive) | GI50 [22]: > 100 µM (inactive) | GI50 [23]: > 100 µM (inactive) | GI50 [24]: > 100 µM (inactive) | GI50 [25]: > 100 µM (inactive) | GI50 [26]: > 100 µM (inactive) | GI50 [27]: > 100 µM (inactive) | GI50 [28]: > 100 µM (inactive) | GI50 [29]: > 100 µM (inactive) | GI50 [30]: > 100 µM (inactive) | GI50 [31]: > 100 µM (inactive) | GI50 [32]: > 100 µM (inactive) | GI50 [33]: > 100 µM (inactive) | GI50 [34]: > 100 µM (inactive) | GI50 [35]: > 100 µM (inactive) | GI50 [36]: > 100 µM (inactive) | GI50 [37]: > 100 µM (inactive) | GI50 [38]: > 100 µM (inactive) | GI50 [39]: > 100 µM (inactive) | GI50 [40]: > 100 µM (inactive) | GI50 [41]: > 100 µM (inactive) | GI50 [42]: > 100 µM (inactive) | GI50 [43]: > 100 µM (inactive) | GI50 [44]: > 100 µM (inactive) | GI50 [45]: > 100 µM (inactive) | GI50 [46]: > 100 µM (inactive) | GI50 [47]: > 100 µM (inactive) | GI50 [48]: > 100 µM (inactive) | GI50 [49]: > 100 µM (inactive) | GI50 [50]: > 100 µM (inactive) | GI50 [51]: > 100 µM (inactive) | GI50 [52]: > 100 µM (inactive) | GI50 [53]: > 100 µM (inactive) | GI50 [54]: > 100 µM (inactive) | GI50 [55]: > 100 µM (inactive) | GI50 [56]: > 100 µM (inactive) | GI50 [57]: > 100 µM (inactive) | GI50 [58]: > 100 µM (inactive)

CC1(C)OC(=O)C(=C2CC(c3ccccc3)c3ccccc32)C(=O)O1 (configuration not stated)
GI50 [1]: > 100 µM | GI50 [2]: > 100 µM (inactive) | GI50 [3]: > 100 µM (inactive) | GI50 [4]: > 100 µM (inactive) | GI50 [5]: > 100 µM (inactive) | GI50 [6]: > 100 µM (inactive) | GI50 [7]: > 100 µM (inactive) | GI50 [8]: > 100 µM (inactive) | GI50 [9]: > 100 µM (inactive) | GI50 [10]: > 100 µM (inactive) | GI50 [11]: > 100 µM (inactive) | GI50 [12]: > 100 µM (inactive) | GI50 [13]: > 100 µM (inactive) | GI50 [14]: > 100 µM (inactive) | GI50 [16]: > 100 µM (inactive) | GI50 [17]: > 100 µM (inactive) | GI50 [18]: > 100 µM (inactive) | GI50 [19]: > 100 µM (inactive) | GI50 [20]: > 100 µM (inactive) | GI50 [21]: > 100 µM (inactive) | GI50 [22]: > 100 µM (inactive) | GI50 [23]: > 100 µM (inactive) | GI50 [24]: > 100 µM (inactive) | GI50 [25]: > 100 µM (inactive) | GI50 [26]: > 100 µM (inactive) | GI50 [27]: > 100 µM (inactive) | GI50 [28]: > 100 µM (inactive) | GI50 [29]: > 100 µM (inactive) | GI50 [30]: > 100 µM (inactive) | GI50 [31]: > 100 µM (inactive) | GI50 [32]: > 100 µM (inactive) | GI50 [33]: > 100 µM (inactive) | GI50 [34]: > 100 µM (inactive) | GI50 [35]: > 100 µM (inactive) | GI50 [36]: > 100 µM (inactive) | GI50 [38]: > 100 µM (inactive) | GI50 [39]: > 100 µM (inactive) | GI50 [40]: > 100 µM (inactive) | GI50 [41]: > 100 µM (inactive) | GI50 [42]: > 100 µM (inactive) | GI50 [43]: > 100 µM (inactive) | GI50 [44]: > 100 µM (inactive) | GI50 [45]: > 100 µM (inactive) | GI50 [46]: > 100 µM (inactive) | GI50 [47]: > 100 µM (inactive) | GI50 [48]: > 100 µM (inactive) | GI50 [50]: > 100 µM (inactive) | GI50 [51]: > 100 µM (inactive) | GI50 [52]: > 100 µM (inactive) | GI50 [53]: > 100 µM (inactive) | GI50 [54]: > 100 µM (inactive) | GI50 [56]: > 100 µM (inactive) | GI50 [57]: > 100 µM (inactive) | GI50 [58]: > 100 µM (inactive)
